This is an account of results in patent US5086070A, “4-benzyl-1H-indoles and anti-arrthymic use thereof” (Roussel Uclaf, priority 1989, dated 1992).

Each structure is given as a SMILES string. Like-named read-outs stand apart in the source and are kept apart here.

Data set [1] has as its system ventricular extrasystoles. The experiment in a line: Anti-arhythmic action in the rat (aconitine-induced ventricular extrasystoles). The note with it: read-out: Percentage of protection (percentage increase in the aconitine dose necessary to initiate the ventricular extrasystoles); for change in vivo at 1 mg/kg / change in vivo at 5 mg/kg: iv; for change in vivo at 25 mg/kg: po, 1 h. Format: in vivo. As to the method: Male rats weighing 300-350 g, anaesthetized by intraperitoneal route with 1.20 g/kg of urethane, were tracheotomized and subjectd to artificial respiration (40-50 insufflations of 3 ml/minute). Needles were implanted under the skin to record the electrocardiogram of the rats on reception of the DII signal. The test products were administered intravenously or orally. After five minutes in the case of intravenous administration and one hour in the case of oral administration, the jugular vein of the rats was perfused with 10 micrograms/minutes under 0.21 ml of an aconitine solution and the time taken for the first ventricular extrasystoles to appear was noted. The amount of aconitine perfused was calculated, then expressed as a function of the body weight of the animal.
The percentage increase in the aconitine dose necessary to initiate the ventricular extrasystoles after treatment was calculated relative to the control animals.

Another data set relates to blood-platelets. In words: Blood-platelet aggregation, in vitro, on plasma rich in blood-platelets (PRP). In kind it is cell-based. As to conditions: Oryctolagus cuniculus, 2 min, rabbit PRP, 2 minutes incubation. The source says: 3) Test for the Activity of Anti-Aggregation of Blood-Platelets. Blood-Platelet Aggregation, in Vitro, on Plasma Rich in Blood-Platelets (PRP)
Measurement of blood-platelet aggregation was made according to the turbidimetric method of Born et al 1963, J. Physiol., Vol. 168, p. 178. Rabbit's blood was removed on Na citrate at 3.2% of cardiac puncture and the plasma rich in blood-platelets was obtained by centrifuging and adjustment of the number of blood-platelets to […]. The aggregation was induced by collagen (40 micrograms per ml of PRP) or PAF acether (0.05 micromoles per liter of PRP). The test compounds were incubated at different concentrations in the PRP 2 minutes before the aggregating agent. The results are expressed in IC50 (concentration inhibiting the aggregation by 50% relative to the control curves).

The next data set deals with caudal artery. The experiment in a line: Test for anti-calcic activity in vitro, isolated caudal artery of the rat (contraction induced by calcium chloride). In kind it is cell-based. As to conditions: caudal artery rings of Wistar rats, depolarizing solution KCl 100 mM, CaCl2 2.5 mM, phentolamine 10^-5 M, 37° C., read-out: IC50 (concentration which inhibited by 50% the contraction induced by calcium chloride). As to the method:
Isolated caudal artery of the rat.
When the contractile responses became reproducible, the test product was added in increasing concentrations 15 minutes before each contraction.

In a further data set the test system is mouse. In words: Acute toxicity, oral, mouse. Format: in vivo. As to the method: The lethal doses LD0 of the various compounds tested were evaluated after oral administration to a mouse. […]
Setting [2] is: PAF acether 0.05 micromoles per liter of PRP, read-out: IC50, induction by PAF ACETHER (concentration inhibiting the aggregation by 50%).
Setting [3] is: collagen 40 micrograms per ml of PRP, read-out: IC50, induction by COLLAGEN (concentration inhibiting the aggregation by 50%).

As for `Cn1ccc2c(C(=O)c3ccccc3OCC(O)CNC(C)(C)C)cccc21` (racemic) [Example 10, (±)[2-[3-[(1,1-dimethylethyl)-amino]-2-hydroxy-propoxy]-phenyl]-(1-methyl-1H-indol-4-yl) methanone], the change in vivo at 1 mg/kg in data set [1] was determined as 133%. The change in vivo at 25 mg/kg in data set [1] is 124%. The results for the IC50 with blood-platelets (setting [2]) and in the data set with blood-platelets (setting [3]) were 70 µM and 21 µM, respectively.

On to `Cn1ccc2c(Cc3ccccc3OCC(O)CNC(C)(C)C)cccc21` (racemic) [Example 11, (±) 1-[(1,1-dimethylethyl)-amino]-3-[2-[(1-methyl-1H-indol-4-yl)-methyl]-phenoxy]-2-propanol], for which the change in vivo at 5 mg/kg in data set [1] worked out at 257%. The change in vivo at 25 mg/kg in data set [1] came to 81%. In addition, the IC50 in the data set with caudal artery came out at 3000 nM; in the data set with blood-platelets (setting [2]), 24 µM; in the data set on blood-platelets (setting [3]) it was 10 µM.

In the case of `Cn1ccc2c(C(O)c3ccccc3OCCCNC(C)(C)C)cccc21` (racemic) [Example 13, (±) α-[2-[3-[(1,1-dimethylethyl)-amino]-propoxy]-phenyl-1-methyl-1H-indol-4-methanol], the change in vivo at 5 mg/kg in data set [1] came out at 140%. Moreover, the IC50 was found to be 70 µM with blood-platelets (setting [2]) and 60 µM in the data set on blood-platelets (setting [3]).

As for `CC(C)N(CC(O)COc1ccccc1C(=O)c1cccc2[nH]ccc12)C(C)C` (racemic) [Example 18, (±) [2-[3-[[bis-1-methylethyl)-amino]-2-hydroxy-propoxy]-phenyl]-(1H-indol-4-yl) methanone], in data set [1], the change in vivo at 5 mg/kg was 135%. Also, the IC50 in the data set with caudal artery came to 7200 nM.

On to `CN1CCN(CC(O)COc2ccccc2C(=O)c2cccc3[nH]ccc23)CC1` (racemic) [Example 19, (±) [2-[2-hydroxy-3-(4-methyl-1-piperazinyl)-propoxy]-phenyl]-(1H-indol-4-yl) methanone], for which the change in vivo at 5 mg/kg in data set [1] was 142%.

Consider `O=C(c1ccccc1OCC(O)CNC1CCCCC1)c1cccc2[nH]ccc12` (racemic) [Example 21, (±) [2-[(3-cyclohexylamino)-2-hydroxylpropoxy]-phenyl]-(1H-indol-4-yl) methanone], for which the change in vivo at 5 mg/kg in data set [1] was 124%.

With `C=C(c1ccccc1OCC(O)CNC(C)(C)C)c1cccc2[nH]ccc12` (racemic) [Example 22, (±) 3-[(1,1-dimethylethyl)-amino]-[2-[1-(1H-indol-4-yl)-ethenyl]-phenoxy]-2-propanol], the change in vivo at 5 mg/kg in data set [1] was 84%. In addition, the change in vivo at 25 mg/kg in data set [1] is 33%. In addition, the IC50 in the data set with caudal artery stood at 3800 nM; in the data set on blood-platelets (setting [2]), 14 µM; in the data set on blood-platelets (setting [3]) it was 9 µM. For the same compound, the “LD0 (maximum dose which did not cause any deaths over 8 days)” value in the data set with mouse was determined as 200 mg/kg.

Take `CC(c1ccccc1OCC(O)CNC(C)(C)C)c1cccc2[nH]ccc12` (racemic) [Example 23, (±) 3-[(1,1-dimethylethyl)-amino]-1-[2-[1-(1H-indol-4-yl)-ethyl]-phenoxy]-2-propanol]: the change in vivo at 5 mg/kg in data set [1] is 88%. Moreover, the IC50 is 4700 nM in the data set on caudal artery, 25 µM with blood-platelets (setting [2]) and 8 µM with blood-platelets (setting [3]).

As for `CON=C(c1ccccc1OCC(O)CNC(C)(C)C)c1cccc2[nH]ccc12` (racemic) [Example 25, (±) O-methyloxime of [2-[3-[(2,2-dimethylethyl)-amino]-2-hydroxypropoxy]-phenyl]-(1H-indol-4-yl) methanone], the change in vivo at 5 mg/kg in data set [1] came to 186%.

Take `CC(C)(C)NCC(O)COc1ccccc1C(O)c1cccc2[nH]ccc12` (single isomer, unassigned) [Example 8, α-[2-[3-[(1,1-dimethylethyl)-amino]-2-hydroxy-propoxy]-phenyl]-1H-indole-4-methanol benzoate]: the “LD0 (maximum dose which did not cause any deaths over 8 days)” value in the data set on mouse was greater than 200 mg/kg.

Consider `CC(C)(C)NCC(O)COc1ccccc1C(O)c1cccc2[nH]ccc12` (single isomer, unassigned; isomer b) [Example 9, α-[2-[3-[(1,1-dimethylethyl)-amino]-2-hydroxy-propoxy]-phenyl]-1H-indole-4-methanol benzoate (Isomer B)], for which, in data set [1], the change in vivo at 5 mg/kg was greater than 165% and the change in vivo at 25 mg/kg was determined as 91%. Besides, in the data set on mouse, the “LD0 (maximum dose which did not cause any deaths over 8 days)” value was greater than 200 mg/kg.

As for `CC(C)(C)NCCCOc1ccc(C(=O)c2cccc3[nH]ccc23)cc1` [Example 1, [4-[3-[(1,1-dimethyl-ethyl)-amino]-propoxy]-phenyl]-(1H-indol-4-yl)-methanone], in the data set on caudal artery, the IC50 turned out to be 460 nM.

Regarding `CC(C)(C)NCC(O)COc1ccc(C(=O)c2cccc3[nH]ccc23)cc1` (stereo not drawn) [Example 2, [4-[3-[(1,1-dimethyl ethyl)-amino]-2-hydroxypropoxy]-phenyl]-(1H-indol-4-yl)-methanone], in data set [1], the change in vivo at 5 mg/kg was 93% and the change in vivo at 25 mg/kg stood at 82%. Also, in the data set on caudal artery, the IC50 is 1900 nM.

In the case of `CC(C)(C)NCCCOc1ccccc1C(=O)c1cccc2[nH]ccc12.O=C(O)c1ccccc1` [Example 3, [2-[3-[(1,1-dimethyl ethyl)-amino]-propoxy]-phenyl]-(1H-indol-4-yl)-methanone benzoate], in data set [1], the change in vivo at 5 mg/kg was determined as 202%. Besides, in data set [1], the change in vivo at 25 mg/kg is 52%. Also, the values for the IC50 in the data set with caudal artery, in the data set with blood-platelets (setting [2]) and in the data set on blood-platelets (setting [3]) were 1900 nM, 47 µM and 31 µM, respectively. Further, the “LD0 (maximum dose which did not cause any deaths over 8 days)” value with mouse is 100 mg/kg.

In the case of `CC(C)(C)NCC(O)COc1ccccc1C(=O)c1cccc2[nH]ccc12` (stereo not drawn) [Example 4, [2-[3-[(1,1-dimethyl ethyl)-amino]-2-hydroxypropoxy]-phenyl]-(1H-indol-4-yl)-methanone], the change in vivo at 5 mg/kg in data set [1] is greater than 217%. Besides, the change in vivo at 25 mg/kg in data set [1] stood at 73%. Also, the values for the IC50 in the data set with caudal artery, in the data set on blood-platelets (setting [2]) and in the data set on blood-platelets (setting [3]) were 6200 nM, 55 µM and 9.5 µM, respectively.

`CC(C)(C)NCC(O)COc1ccccc1Cc1cccc2[nH]ccc12` (stereo not drawn) [Example 5, 1-[(1,1-dimethyl-ethyl)-amino]-3-[2-[(1H-indol-4-yl)-methyl]-phenoxy]-2-propanol]: the IC50 was 2000 nM in the data set on caudal artery, 42 µM in the data set with blood-platelets (setting [2]) and 18 µM with blood-platelets (setting [3]). In the data set with mouse, the “LD0 (maximum dose which did not cause any deaths over 8 days)” value is on record as greater than 200 mg/kg.

`CC(C)(C)NCCCOc1ccccc1Cc1cccc2[nH]ccc12` [Example 6, N-(1,1-dimethylethyl)-3-[2-[(1H-indol-4-yl)-methyl]-phenoxy]-propanamine benzoate]: the IC50 in the data set on caudal artery was determined as 400 nM; in the data set with blood-platelets (setting [2]), 37 µM; in the data set with blood-platelets (setting [3]) it was 14 µM.

As to `CC(C)(C)NCCCOc1ccccc1C(O)c1cccc2[nH]ccc12` (stereo not drawn) [Example 7, α-[2-[3-[(1,1-dimethylethyl)-amino]-propoxy]-phenyl]-1H-indol-4-methanol benzoate], the change in vivo at 5 mg/kg in data set [1] is greater than 201%. Also, the “LD0 (maximum dose which did not cause any deaths over 8 days)” value in the data set on mouse was 100 mg/kg.

Take `Cn1ccc2c(C(=O)c3ccccc3OCCCNC(C)(C)C)cccc21` [Example 12, [2-[3-[(1,1-dimethylethyl)-amino]-propoxy]-phenyl]-(1-methyl-1H-indol-4-yl)methanone]: in data set [1], the change in vivo at 1 mg/kg amounted to 99%. Further, the IC50 in the data set on caudal artery amounted to 4800 nM; in the data set with blood-platelets (setting [2]) it was 40 µM; in the data set with blood-platelets (setting [3]) it was 40 µM.

As to `CC(C)(C)NCC(O)COc1ccccc1C(=O)c1cccc2c1CC(=O)N2` (stereo not drawn) [Example 15, 1,3-dihydro-4-[2-[3-[(1,1-dimethylethyl)-amino]-2-hydroxy-propoxy]-benzoyl]-2H-indol-2-one], the “LD0 (maximum dose which did not cause any deaths over 8 days)” value in the data set with mouse is recorded as greater than 200 mg/kg.

Take `CC(C)(C)NCCOc1ccccc1C(=O)c1cccc2[nH]ccc12` [Example 16, [2-[2-[(1,1-dimethylethyl)-amino]-ethoxy]-phenyl]-(1H-indol-4-yl)-methanone]: the IC50 with caudal artery came to 1100 nM; in the data set on blood-platelets (setting [2]), 100 µM; with blood-platelets (setting [3]), 57 µM.

Take `C=C(c1ccccc1OCCCNC(C)(C)C)c1cccc2[nH]ccc12` [Example 24]: the IC50 with caudal artery was found to be 3100 nM; in the data set on blood-platelets (setting [2]), 14 µM; in the data set on blood-platelets (setting [3]), 8 µM.
